The values that follow are results of earlier work, collected in patent US20060160783A1, “Novel omeprazole forms and related methods” (Transform Pharmaceuticals, Inc., priority 2004, published 2006).

For data set [1] the following is noted: according to the '188 Patent.
Test in data set [2]: not given
The source holds these as a separate data set.

On to `COc1ccc2[n-]c([S+]([O-])Cc3ncc(C)c(OC)c3C)nc2c1.[Na+]` (centres unmarked) [Omeprazole sodium salt form B], for which the hygroscopicity entry in data set [1] is “less hygroscopic than omeprazole form A”. Turning to `COc1ccc2[nH]c([S+]([O-])Cc3ncc(C)c(OC)c3C)nc2c1` (centres unmarked) [Omeprazole, 5-methoxy-2-[[(4-methoxy-3,5-dimethyl-2-pyridinyl)methyl]sulfinyl]-1H-benzimidazole], the “stability in acidic aqueous solutions” value is “degrades very rapidly”. Besides, the “solubility in alkaline solutions” value in data set [2] (alkaline solutions, as a negatively charged ion) was “very soluble”. Moreover, the solubility in water entry in data set [2] (water) is listed as “only slightly soluble”. In the case of `COc1ccc2[n-]c([S+]([O-])Cc3ncc(C)c(OC)c3C)nc2c1.[Na+]` (centres unmarked) [omeprazole sodium form A], the hygroscopicity result in data set [1] is on record as “very hygroscopic”.
